These results are taken from US20090076012A1, “Modulation of pathogenicity” (priority 2002, published 2009).

For the experiment, the system named is bioluminescent sensor strain Escherichia coli MT102 (pSB403). The experiment is described as follows: Biosensor assay: quorum sensing inhibition, bioluminescence of the sensor strain. Type of experiment: cell-based. The conditions noted are these: 3oxo-C6-HSL 100 nM, bioluminescence after 4 hours at 30° C. The protocol: Quorum sensing inhibition of the compounds was investigated with the aid of the bioluminescent sensor strain Escherichia coli MT102 (pSB403) (Winson et al., FEMS Microbiol. Lett. 163:185-92, 1998). Plasmid pSB403 contains the Photobacterium fischeri luxR gene together with the […] promoter region as a transcriptional fusion to the bioluminescence genes luxCDABE of Photorhabdus luminescence.
Inhibitory studies were conducted in a microtitre dish assay as follows: the E. coli sensor strain grown over night in LB medium (Sambrook et al., Molecular Cloning: A Laboratory Manual. 2nd Edn. Cold Spring Harbor Laboratory, New York, 1989) was diluted 1:4 and grown for another 1 hour at 30° C. After addition of 3oxo-C6-HSL (final concentration 100 nM) 100 μl of an exponential culture suspension were filled in the wells of a FluoroNunc Polysorp microtitre dish. The test compounds were added to the culture in different concentrations and bioluminescence was measured after 4 hours of incubation at 30° C. with a Lamda Fluoro 320 Plus reader (Bio-Tek Instruments). Inhibitor-mediated reduction of light emission was correlated with the value obtained without addition of the test compounds. IC50 values (concentration of inhibitor required for 50% inhibition of the signal compared to the signal without inhibitor) were determined by using a fitting function after drawing a graph of the activities of eight different inhibitor concentrations.

Where two headings read alike, the source gives them in different places.

A word on the IC50: it is the concentration that gives 50% inhibition. For `Cc1ccc(C(=O)NNC(=O)c2sccc2Br)s1` [Compound 57, 3-Bromo-thiophene-2-carboxylic acid N′-(5-methyl-thiophene-2-carbonyl)-hydrazide], the IC50 (Escherichia coli, 4 h) was in the range of 1 to 50 µM.

Consider `CCCCCCC(=O)CC(=O)Nc1sccc1C(=O)OC` [Compound 121, 2-(3-Oxo-nonanoylamino)-thiophene-3-carboxylic acid methyl ester], for which the concentration for half-maximal inhibition (IC50) (Escherichia coli, 4 h) was above 100 µM.

Turning to `O=C(NNC(=O)c1ccc(Cl)s1)Nc1ccccc1CCl` [Compound 108, 4(2-Chloro-methyl-phenyl)-1-(5-chloro-thiophene-2-carbonyl)-semicarbazide], for the setting “Escherichia coli, 4 h”, the IC50 lay in the range of 1 to 50 µM.

Take `Cc1cc(C(=O)NNC(=O)c2cccs2)n(C)n1` [Compound 66, 2,5-Dimethyl-2H-pyrazole-3-carboxylic acid N′-(thiophene-2-carbonyl)-hydrazide]: the IC50 (Escherichia coli, 4 h) was above 100 µM.

With `COc1c(C(=O)NNC(=O)c2cccs2)csc1Cl` [Compound 50, 5-Chloro-4-methoxy-thiophene-3-carboxylic acid N′-(thiophene-2-carbonyl)-hydrazide], where the note is “Escherichia coli, 4 h”, the IC50 fell in the range of 50 to 100 µM.

`Cc1nn(C)c2ncc(C(=O)NNC(=O)c3cccs3)c(Cl)c12` [Compound 63]: for the setting “Escherichia coli, 4 h”, the IC50 is above 100 µM.

Consider `Cn1nc(-c2ccc(Cl)cc2)cc1NC(=O)c1cccs1` [Compound 14, Thiophene-2-carboxylic acid [5-(4-chloro-phenyl)-2-methyl-2H-pyrazol-3-yl]-amide], for which the half-inhibitory concentration (IC50) (Escherichia coli, 4 h) lay in the range of 1 to 50 µM.

For the compound `O=C(CCCCCBr)NNC(=O)c1cccs1` [Compound 78, Thiophene-2-carboxylic acid N′-(6-bromo-hexanoyl)-hydrazide], the IC50 (Escherichia coli, 4 h) is 1 to 50 µM.

`O=C(NNC(=O)c1sccc1Br)c1ccco1` [Compound 39, Furan-2-carboxylic acid N′-(3-bromo-thiophene-2-carbonyl)-hydrazide] yielded a half-maximal inhibitory concentration (IC50) (Escherichia coli, 4 h) of 1 to 50 µM.

Consider `CCCCCCC(=O)CC(=O)Nc1nccs1` [Compound 127, 3-Oxo-nonanoic acid thiazol-2-ylamide], for which the concentration for half-maximal inhibition (IC50) (Escherichia coli, 4 h) is above 100 µM.

`CCCCCCC(=O)NNS(=O)(=O)c1ccc(Cl)s1` [Compound 99, N′-(5-Chloro-thiophen-2-sulfonyl)-heptanoic acid hydrazide] returned an IC50 (Escherichia coli, 4 h) above 100 µM.

With `O=C(NNC(=O)c1ccc(Br)s1)Nc1c(F)cccc1F` [Compound 110, 1-(5-Bromo-thiophene-2-carbonyl)-4-(2,6-difluoro-phenyl)-semicarbazide], the IC50 (Escherichia coli, 4 h) is above 100 µM.

With `CCCCCCC(=O)Nc1cc(-c2cccs2)nn1C` [Compound 19, Heptanoic acid (2-methyl-5-thiophen-2-yl-2H-pyrazol-3-yl)-amide], where the note is “Escherichia coli, 4 h”, the 50% inhibitory concentration (IC50) lay in the range of 1 to 50 µM.

Consider `Cc1cc(C(=O)NNC(=O)c2cccs2)n(C(C)(C)C)n1` [Compound 68, Thiophene-2-carboxylic acid N′-(2-tert-butyl-5-methyl-2H-pyrazole-3-carbonyl)-hydrazide], for which the 50% inhibitory concentration (IC50) (Escherichia coli, 4 h) was above 100 µM.

On to `Cc1c(C(=O)NNC(=O)c2cccs2)[n+]([O-])c2ccccc2[n+]1[O-]` [Compound 32, N′-(3-Methyl-1,4dioxy-quinoxaline-2-carbonyl)-thiophene-2-carboxylic acid hydrazide], for which the concentration for half-maximal inhibition (IC50) (Escherichia coli, 4 h) was 50 to 100 µM.

For the compound `CCCCCCC(=O)CC(=O)Nc1ccn[nH]1` [Compound 113, 3-Oxo-nonanoic acid (2H-pyrazol-3-yl)-amide], the concentration for half-maximal inhibition (IC50) (Escherichia coli, 4 h) is above 100 µM.

In the case of `Cc1ccc(C(=O)NNC(=O)CCC2CCCC2)s1` [Compound 87, 5-Methyl-thiophene-2-carboxylic acid N′-(3-cyclopentyl-propionyl)-hydrazide], the IC50 (Escherichia coli, 4 h) was 1 to 50 µM.

The compound `CCn1nc(C)c(Br)c1C(=O)NNC(=O)c1cc(Br)c(Br)s1` [Compound 74, 4-Bromo-2-ethyl-5-methyl-2H-pyrazole-3-carboxylic acid N′-(4,5-di-bromo-thiophene-2-carbonyl)-hydrazide] registered an IC50 (Escherichia coli, 4 h) above 100 µM.

In turn, `CCCCCCC(=O)CC(=O)Nc1cc(C)ns1` [Compound 125, 3-Oxo-nonanoic acid (3-methyl-isothiazol-5-yl)-amide] registered a half-inhibitory concentration (IC50) (Escherichia coli, 4 h) above 100 µM.

Take `O=C(NNS(=O)(=O)c1ccc(Cl)s1)c1cccs1` [Compound 97, N′-(5-Chloro-thiophen-2-sulfonyl)-thiophene-2-carboxylic acid hydrazide]: under “Escherichia coli, 4 h”, the concentration for half-maximal inhibition (IC50) lay within 1 to 50 µM.

Where the note is “Escherichia coli, 4 h”, `O=C(NNC(=O)c1cc(Br)c(Br)s1)Nc1cccc(C(F)(F)F)c1` [Compound 104, 1-(4,5-Dibromo-thiophene-2-carbonyl)-4-(3-trifluoromethyl-phenyl)-semi-carbazide] gave an IC50 of 1 to 50 µM.

`Cn1nc(-c2ccccc2)cc1NC(=O)CCCCCBr` [Compound 18, 6-Bromo-hexanoic acid (2-methyl-5-phenyl-2H-pyrazol-3-yl)-amide]: the IC50 (Escherichia coli, 4 h) was 1 to 50 µM.

The compound `CCCCCCC(=O)NNC(=O)c1ccc(C)s1` [Compound 83, 5-Methyl-thiophene-2-carboxylic acid N′-heptanoyl-hydrazide] had an IC50 (Escherichia coli, 4 h) of 1 to 50 µM.

As to `CCCCCCC(=O)CC(=O)Nc1oc(C)nc1C#N` [Compound 135, 3-Oxo-nonanoic acid (4cyano-2-methyl-oxazol-5-yl)-amide], the IC50 (Escherichia coli, 4 h) fell in the range of 50 to 100 µM.

The compound `CCCCCCC(=O)CC(=O)Nc1ccc(C(=O)OC)o1` [Compound 138, 5-(3-Oxo-nonanoylamino)-furan-2-carboxylic acid methyl ester] gave an IC50 (Escherichia coli, 4 h) above 100 µM.

`CCCCCCC(=O)CC(=O)Nc1cc(C)nn1C` [Compound 118, 3-Oxo-nonanoic acid (2,5-dimethyl-2H-pyrazol-3-yl)-amide] gave an IC50 (Escherichia coli, 4 h) above 100 µM.

As to `Cc1cc(C(=O)NNc2nccc(C(F)(F)F)n2)n(C)n1` [Compound 26, 2,5-Dimethyl-2H-pyrazole-3-carboxylic acid N′-(4-trifluoromethyl-pyrimidin-2-yl)-hydrazide], the IC50 (Escherichia coli, 4 h) is 1 to 50 µM.

Take `Cc1csc(C(=O)NNC(=O)Nc2ccc(Br)cc2)c1Cl` [Compound 106, 4-(4-Bromo-phenyl)-1-(3-chloro-4-methyl-thiophene-2-carbonyl)-semicarbazide]: the 50% inhibitory concentration (IC50) (Escherichia coli, 4 h) lay in the range of 1 to 50 µM.

As to `CCCCCCCCCC(=O)CC(=O)Nc1cc(C)nn1C` [Compound 119, 3-Oxo-dodecanoic acid (2,5-dimethyl-2H-pyrazol-3-yl)-amide], the IC50 (Escherichia coli, 4 h) was above 100 µM.

In turn, `COC(=O)CCCC(=O)NNC(=O)c1ccc(C)s1` [Compound 88] showed an IC50 (Escherichia coli, 4 h) above 100 µM.

As for `O=C(NNC(=O)c1sc2ccccc2c1Cl)c1sccc1Br` [Compound 61, 3-Chloro-benzo[b]thiophene-2-carboxylic acid N′-(3-bromo-thiophene-2-carbonyl)-hydrazide], the IC50 (Escherichia coli, 4 h) fell in the range of 50 to 100 µM.

Compound `O=C(NNC(=O)c1sc2ccccc2c1Cl)c1cccs1` [Compound 60, 3-Chloro-benzo[b]thiophene-2-carboxylic acid N′-(thiophene-2-carbonyl)-hydrazide] came in with an IC50 (Escherichia coli, 4 h) of 1 to 50 µM.

In turn, `O=C(Nc1cccnc1)c1cc(Cl)sc1Cl` [Compound 3, 2,5-Dichloro-thio-phene-3-carboxylic acid pyridin-3-ylamide] had an IC50 (Escherichia coli, 4 h) of 1 to 50 µM.

Compound `COc1ccc(NC(=O)c2cccnc2SC)cn1` [Compound 8, N-(6-Methoxy-pyridin-3-yl)-2-methylsulfanyl-nicotinamide] came in with a 50% inhibitory concentration (IC50) (Escherichia coli, 4 h) above 100 µM.

`CCOC(=O)CC(=O)NNC(=O)c1cc2ccccc2s1` [Compound 96, 3-[N′-(Benzo[b]thiophene-2-carbonyl)-hydrazino]-3-oxo-propionic acid ethyl ester] yielded an IC50 (Escherichia coli, 4 h) of 50 to 100 µM.

As to `CCCCCCCC(=O)NNC(=O)c1ccnc(Cl)c1` [Compound 93, 2-Chloro-isonicotinic acid N′-octanoyl-hydrazide], for the setting “Escherichia coli, 4 h”, the IC50 lay within 1 to 50 µM.

As to `CCCCCCCCCCCC(=O)NNC(=O)c1cccs1` [Compound 86, Thiophene-2-carboxylic acid N′-dodecanoyl-hydrazide], the IC50 (Escherichia coli, 4 h) fell in the range of 1 to 50 µM.

As to `Cc1ccccc1NC(=O)NNC(=O)c1sc2ccccc2c1Cl` [Compound 112, 1-(3-Chloro-benzo[b]thiophene-2-carbonyl)-4-o-tolyl-semi-carbazide], the IC50 (Escherichia coli, 4 h) was above 100 µM.

`Cc1cc(C(=O)NNC(=O)c2sc3ccccc3c2Cl)n(C)n1` [Compound 64, 2,5-Dimethyl-2H-pyrazole-3-carboxylic acid N′-(3-chloro-benzo[b]thiophene-2-carbonyl)-hydrazide]: the half-inhibitory concentration (IC50) (Escherichia coli, 4 h) was above 100 µM.

As for `CCCCCCCCCC(=O)CC(=O)Nc1sccc1C(=O)OC` [Compound 122, Z(3-Oxo-dodecanoylamino)-thiophene-3-carboxylic acid methyl ester], the concentration for half-maximal inhibition (IC50) (read-out: IC50) was above 100 µM.

Compound `O=C(NNC(=O)c1sccc1Br)c1ccc(Cl)s1` [Compound 48] gave an IC50 (Escherichia coli, 4 h) of 50 to 100 µM.

Compound `CCCCCCC(=O)CC(=O)Nc1ccon1` [Compound 130, 3-Oxo-nonanoic acid isoxazol-3-ylamide] showed a 50% inhibitory concentration (IC50) (Escherichia coli, 4 h) above 100 µM.

Regarding `CCCCCCC(=O)NNC(=O)c1cccs1` [Compound 79, Thiophene-2-carboxylic acid N′-heptanoyl-hydrazide], the IC50 (Escherichia coli, 4 h) fell in the range of 1 to 50 µM.

In the case of `CCOc1ccsc1C(=O)NNC(=O)c1cccs1` [Compound 45, Thiophene-2-carboxylic acid N′-(3-ethoxy-thiophene-2-carbonyl)-hydrazide], the IC50 (Escherichia coli, 4 h) lay within 1 to 50 µM.

`O=C(NNC(=O)c1cccs1)c1ccco1` [Compound 35, Furan-2-carboxylic acid N′-(thiophene-2-carbonyl)-hydrazide] gave a half-maximal inhibitory concentration (IC50) (Escherichia coli, 4 h) of 50 to 100 µM.
